The values that follow come from patent US7425577B2, “Lipase-colipase inhibitor” (Forskarpatent 1 SYD AB, priority 2003, dated 2008).

Test [1] concerns the target T1, Lipase and colipase, purified from human pancreatic gland (Homo sapiens, UniProt P04118+P16233).
T1 construct: Lipase, Purified from Human Pancreatic Gland; Colipase, Purified from Human Pancreatic Gland; from tissue; host or cells: human pancreatic gland
T1 sequence (P16233 17-465): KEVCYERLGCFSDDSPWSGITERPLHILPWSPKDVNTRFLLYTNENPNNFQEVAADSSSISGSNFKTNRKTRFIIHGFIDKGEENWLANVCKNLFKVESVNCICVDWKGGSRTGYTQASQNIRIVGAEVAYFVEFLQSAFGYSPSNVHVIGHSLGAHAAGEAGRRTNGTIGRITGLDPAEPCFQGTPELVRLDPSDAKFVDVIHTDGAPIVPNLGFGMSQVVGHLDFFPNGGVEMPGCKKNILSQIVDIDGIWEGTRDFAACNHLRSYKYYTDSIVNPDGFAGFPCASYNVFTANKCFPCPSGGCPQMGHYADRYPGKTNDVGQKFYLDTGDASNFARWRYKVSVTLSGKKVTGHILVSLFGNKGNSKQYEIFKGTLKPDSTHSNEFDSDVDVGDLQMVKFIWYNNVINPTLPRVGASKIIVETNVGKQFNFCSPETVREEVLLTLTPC
T1 sequence (P04118 23-112): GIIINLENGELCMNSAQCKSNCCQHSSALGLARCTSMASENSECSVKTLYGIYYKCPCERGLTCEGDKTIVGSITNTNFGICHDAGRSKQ
Briefly: Determination of lipolysis by colipase/lipase (pH-stat, tributyrine emulsion with NaTDC). It counts as biochemical. An excerpt: Determination of Lipolysis by Colipase/Lipase
The most important enzyme in the gastro-intestinal tract being responsible for the hydrolysis of lipids/fats in the gastro-intestinal tract is lipase, pancreatic lipase, together with its protein cofactor colipase. These are two proteins, which are secreted from the pancreatic gland. […] The colipase binds to lipase in a molar 1:1 complex and then moves the complex to the triglyceride surface. In the binding between lipase and colipase hydrogen bonds are present, between arg38 of the colipase and ser343 of the lipase and from glu15 of the colipase and the asn241 of the lipase molecules. In the binding of colipase to the substrate (the lipids/fat) there are both hydrophobic bonds as well as ion-ion bonds present. By an isolated lack of colipase it has been shown that colipase has a decisive role for the lipolysis in the gastro-intestinal tract of humans. Pure lipase and colipase have been produced in accordance with the following.
Lipase, Purified from Human Pancreatic Gland
Colipase, Purified from Human Pancreatic Gland
0.5 ml of tributyrine is mixed with 15 ml of a buffer containing 1 mM CaCl2, 150 mM NaCl, 2 mM tris-maleate, pH 7.0 and 4 mM NaTDC (sodium taurodeoxycholate). An emulsion is obtained by continuous stirring. pH is titrated by means of a pH-state, where 0.1 N NaOH is added automatically to keep an constant pH. 10 μl of lipase is added from a stock solution containing 70 units of lipase/ml, followed by 10 μl of colipase from a stock solution containing 1 mg colipase/ml. An activity is registered which is determined to be 100%. An addition of an inhibitor is then made. A new assay is used for every concentration, prepared in the same way. The inhibition is registered as percentage of control. A dose-response plot is obtained for the compounds having an inhibiting ability.

A short description of test [2]: Acute effect on blood lipids: single dose plus Intralipid in overnight-fasted rats. It counts as in vivo, female Sprague-Dawley rats. The conditions noted are these: single dose 200 μl plus 1 ml Intralipid (200 mg); 0, 30, 60, 120 and 180 min. The method, then:
(§1) Blood was drawn in rats from the intra-orbital bullar plexus under anaesthesia and collected in ice-cold tubes. Serum was obtained by centrifugation at 3000 g for 15 min at 4° C. For acute effect of dimethylaminoethyl dodecyl ether on blood lipids, overnight-fasted rats were given 200 μl dimethylaminoethyl dodecyl ether plus 1 ml (200 mg) Intralipids orally through a gastric gavage and blood collected at 0, 30, 60, 120 and 180 min. Plasma triglycerides was determined with an Sigma diagnostics kit. Plasma fatty acids were measured by NEFAC kit (Wako chemicals GmbH, Neuss, Germany). Plasma PYY (3-36) and leptin were measured with the PYY Enzyme Immunossay kit and leptin Enzyme Immunossay (Phoenix Pharmaceuticals, USA)

Test [3] can be described thus: Evaluation of food intake and body weight, oral gavage for 5 days. It counts as in vivo, female Sprague-Dawley rats. The method, then:
Female female Sprague-Dawley rats were used for all experiments. Rats were housed in a temperature-controlled room (22±1° C.) under a 12-h light (6:00-18:00)/12-h cycle, given free access to water, and fed an libitum on a standard chow unless otherwise stated for a high-fat diet experiment. All procedures using animals were approved by the local ethics committee and followed the guidelines for experiments in animals (European Economic Community Council Directive 86/609/EEC).
For measurement of food consumption rats were individually housed in cage and given a high-fat diet for a week before the beginning of the experiment. […] Rat with as libitum access to high-fat food were orally given dimethylaminoethyl dodecyl ether (37.5 or 50 μl dissolved in 1% methycellulose) through a gastric gavage or 1% methyl cellulose at the onset of the dark cycle (18:00) and food intake was measured at 15 h following dimethylaminoethyl dodecyl ether administration from pre-weighed portions of food dispensed from were cage top. Cages were carefully monitored for evidence of food spillage or grinding.

Test [4] can be described thus: Serum PYY 3-36, leptin and ghrelin after 5 days of oral administration. It counts as in vivo, female Sprague-Dawley rats. The procedure: as §1
Stat View program was used for statistics analysis. The data were analyzed using two-way ANOVA followed by post hoc tests for comparison of individual differences. Student's t-test was used for the analysis of triglycerides, PYY3-36, leptin and ghrelin data.

“Also recorded” adds a separate entry of the source.

As for `CCCCCCCCCCCCOCCN(C)C` [dimethylaminoethyl dodecyl ether], the “Activity Inhibitor” value came to 0.237 µmol/min in test [1] (amount of inhibitor 0.97 μmol, control activity 0.313); 0.204 µmol/min in test [1] (amount of inhibitor 1.95 μmol, control activity 0.301); 0.127 µmol/min in test [1] (amount of inhibitor 3.89 μmol, control activity 0.308); 0.069 µmol/min in test [1] (amount of inhibitor 6.81 μmol, control activity 0.319); 0.033 µmol/min in test [1] (amount of inhibitor 9.73 μmol, control activity 0.327); 0.013 µmol/min in test [1] (amount of inhibitor 14.59 μmol, control activity 0.328). Further, in test [1] (amount of inhibitor 19.46 μmol, control activity 0.332), the “Activity Inhibitor” value amounted to 0 µmol/min. The “Serum (plasma) fatty acids vs Intralipid alone” value in test [2] is on record as “significantly reduced; also recorded: decreased”. The “Serum (plasma) triglycerides vs Intralipid alone” value in test [2] is reported as “significantly reduced”. Besides, the “Food intake vs vehicle” value in test [3] (rats fed high-fat diet, 25 μl orally) is given as “no food intake inhibition”; in test [3] (rats fed high-fat diet, 37.5 μl by gastric gavage), “a trend towards reduced food intake was observed, however this did not reach statistic significance”; in test [3] (rats fed high-fat diet, 50 μl by gastric gavage, up to 5 days) it was “highly significant reduction in food intake; also recorded: significantly inhibited”. The “Body weight vs non-treated group” value in test [3] (rats fed high-fat diet, 50 μl daily for 5 days) is “decreased body weight; also recorded: significantly loss of body weight”. Further, in test [3] (rats fed low-fat diet, 37.5 and 50 μl, 5 testing days), the “Food intake vs controls” value is recorded as “failed to decrease food intake”. Also, in test [4] (fasted rats, 50 μl for 5 days), the “Serum PYY 3-36 level vs controls” value is “no difference”. For the same molecule, in test [4] (fasted rats, 50 μl for 5 days), the “Serum ghrelin level vs controls” value is on record as “markedly increased”. For the same molecule, the “Serum leptin level vs controls” value in test [4] (fasted rats, 50 μl for 5 days) is “markedly decreased; also recorded: significantly decreased”. For the same molecule, in test [4] (treated rats, 5 days, control rats 0.86±0.24), the “Serum PYY3-36 level” value was 0.85 ± 0.26 ng/mL.
